The target of one data set is T1, human FSH receptor (Homo sapiens, UniProt P23945).
T1 construct: host or cells: CHO-K1 (CHO FSH-R 6CRE-Luc, 1D7 cells)
T1 sequence (P23945 18-695): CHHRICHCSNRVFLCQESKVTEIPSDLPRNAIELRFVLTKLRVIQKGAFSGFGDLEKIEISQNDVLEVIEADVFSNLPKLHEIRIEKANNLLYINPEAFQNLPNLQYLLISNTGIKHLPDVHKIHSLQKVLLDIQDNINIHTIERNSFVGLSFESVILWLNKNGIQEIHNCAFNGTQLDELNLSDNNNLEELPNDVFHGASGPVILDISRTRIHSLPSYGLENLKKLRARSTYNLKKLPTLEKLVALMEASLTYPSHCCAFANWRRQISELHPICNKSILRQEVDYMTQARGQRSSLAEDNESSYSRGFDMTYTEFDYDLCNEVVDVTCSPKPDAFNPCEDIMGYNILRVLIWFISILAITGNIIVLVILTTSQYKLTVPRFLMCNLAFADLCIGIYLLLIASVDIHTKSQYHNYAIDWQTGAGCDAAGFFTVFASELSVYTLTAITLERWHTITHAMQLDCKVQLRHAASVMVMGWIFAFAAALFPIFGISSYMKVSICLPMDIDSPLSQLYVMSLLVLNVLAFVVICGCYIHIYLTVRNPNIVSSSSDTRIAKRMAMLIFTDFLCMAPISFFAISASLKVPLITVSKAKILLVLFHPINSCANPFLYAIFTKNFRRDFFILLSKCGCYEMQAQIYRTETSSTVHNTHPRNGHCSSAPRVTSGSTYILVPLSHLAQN
Put plainly: Follicle-Stimulating Hormone Receptor-Dependent Cre-Luciferase Reporter Gene Assay (CHO FSH-R 6CRE-Luc cells). The class given is cell-based. Particulars: for inhibition at 30 µM: 2-dose format, concentration in parentheses 30 μM, inhibition of the response to EC50 of FSH; for IC50: dose-response format, in presence of EC50 of purified human FSH. The text has this:
Follicle-Stimulating Hormone Receptor-Dependent Cre-Luciferase Reporter Gene Assay for the Identification of Follicle-Stimulating Hormone (FSH) Antagonists
A Chinese hamster ovarian cell line that stably produces the human FSH receptor and a luciferase reporter gene regulated by cAMP response elements was used to identify and determine the relative potencies of human FSH receptor antagonists. See for example, Kelton, C. A., et al. Mol. Cell. Endocrinol. 89:141-151 (1992), Tilly, J. L., et al. Endocrinology 131:799-806(1992), and George, S. E., et al. J. Biomol. Screening 2:235-240 (1997).
Compound Vehicle: Stock compounds were solubilized in an appropriate vehicle, e.g., phosphate buffered saline (PBS) or dimethyl sulfoxide (DMSO), at 30 mM. The compounds were subsequently diluted in DMSO to working dilutions of 1 and 20 or 30 mM for 2-dose testing format and 1 μM-10 mM for dose-response format. The DMSO dilutions were diluted 500-fold in sterile growth medium [D-MEM/F-12 (GIBCO/BRL; Grand Island, NY) containing 15 mM HEPES, 2 mM 1-glutamine, pyridoxine hydrochloride, phenol red and 5% FetalClone® II (HyClone Laboratories, Inc; Logan, Utah), 0.2% DMSO, 100 units penicillin G/ml, and 100 μg streptomycin sulfate/ml (GIBCO/BRL)]. The concentration of the vehicle in each of the compound dilutions was the same.
Positive Controls: Purified human FSH (>98%) was purchased from Cortex Biochem, Inc. (San Leandro, Calif.) and 3-[(2S*,5R*)-5-{[2-(1H-Indol-3-yl)-ethylcarbamoyl]-methyl}-4-oxo-2-(5-phenylethynyl-thiophen-2-yl)-thiazolidin-3-yl]-benzamide (an FSH-R thiazolidinone antagonist) was prepared by processes described by R. A. Scheuerman et al. in U.S. Pat. No. 6,426,357 (Affymax).
The CHO FSH-R 6CRE-Luc cells (1D7 cells) were obtained from Affymax (Palo Alto, Calif.). These Chinese hamster ovary cells (CHO-K1) were engineered genetically to stably express the recombinant human FSH receptor gene and a luciferase reporter gene under the regulation of 6 copies of a cAMP response element. The cells were plated one day prior to treatment into 96-well white opaque plates at a density of 50,000 cells/100 μl/well in growth medium. On the day of treatment, the growth medium was removed from the wells by aspiration and 50 μl of fresh growth medium was added to each well. The cells were incubated at 37° C. in a humidified incubator with 5% CO2/95% air.
The treated cells were incubated for 4 hours at 37° C. in a humidified incubator with 5% CO2/95% air. At the end of the incubation period, luciferase activity was measured by chemiluminescence using a commercially available kit (LucScreen, Tropix, Inc., Bedford, Mass.) according to the manufacturer's specifications, except that Buffer 1 and Buffer 2 were mixed together in equal proportion prior to the addition of 100 μl of the combined reagents to each well. Chemiluminescence was detected using a luminometer (EG & G Berthold Microlumat LB 96 P, Wallac, Gaithersburg, Md.) with chemiluminescence measured for 1 sec/well. Background luminescence was measured for each well prior to the addition of the LucScreen reagent.
In the 96-well 2-dose format, each compound was tested in duplicate at each dose. […] One plate was used to test a maximum of 22 compounds.
The EC50 of purified human FSH alone was tested in triplicate with each test compound. The doses chosen to test each compound were extrapolated from the initial 2-dose screening process. Along with the test compounds, purified human FSH also was tested in a dose response (0.03, 0.1, 0.3, 1, 3, 10, and 30 ng/ml) for a positive control and quality control. One plate was used for 3 test compounds and the FSH positive control.
Luciferase activity is expressed as relative light units/sec/well. Luciferase activity in antagonist was compared to the appropriate negative and positive controls. For 2-dose testing, results are reported as luciferase activity and are expressed as percent inhibition of the response obtained from the EC50 of FSH.
Background: A reporter such as luciferase makes a cellular process visible.

This note sets out measurements from patent US7691848B2, “Pyrrolobenzodiazepine arylcarboxamides and derivatives thereof as follicle-stimulating hormone receptor antagonists” (Wyeth, priority 2005, dated 2010).

For orientation: melting point means the temperature of the solid-liquid transition. Broadly, the inhibition is the drop in the measured response relative to a control, in per cent. `COc1cc(C(=O)N2Cc3ccc(C(=O)NCc4ccc(Cl)cc4)n3Cc3ccccc32)ccc1-c1ccccc1C` [Example 43, N-(4-CHLOROBENZYL)-10-[(2-METHOXY-2′-METHYL-1,1′-BIPHENYL-4-YL)CARBONYL]-10,11-DIHYDRO-5H-PYRROLO[2,1-C][1,4]BENZODIAZEPINE-3-CARBOXAMIDE] showed a melting point of 218 to 219 °C. Further, the inhibition at 30 µM on human FSH receptor stood at 56%.
Broadly, the IC50 is the point on the concentration scale where inhibition reaches its midpoint. In turn, `COc1cc(C(=O)N2Cc3ccc(C(=O)NCc4ccc(OC(F)(F)F)cc4)n3Cc3ccccc32)ccc1-c1ccccc1C` [Example 45, 10-[(2-METHOXY-2′-METHYL-1,1′-BIPHENYL-4-YL)CARBONYL]-N-[4-(TRIFLUOROMETHOXY)BENZYL]-10,11-DIHYDRO-5H-PYRROLO[2,1-C][1,4]BENZODIAZEPINE-3-CARBOXAMIDE] registered a melting point of 145 to 149 °C. The IC50 on human FSH receptor is greater than 30 µM.
`COc1cc(C(=O)N2Cc3ccc(C(=O)NCc4ccc(C)cc4C)n3Cc3ccccc32)ccc1-c1ccccc1C` [Example 46, N-(2,4-DIMETHYLBENZYL)-10-[(2-METHOXY-2′-METHYL-1,1′-BIPHENYL-4-YL)CARBONYL]-10,11-DIHYDRO-5H-PYRROLO[2,1-C][1,4]BENZODIAZEPINE-3-CARBOXAMIDE] had a melting point of 161 to 162 °C. Further, at human FSH receptor, the inhibition at 30 µM stood at 44%.
Molecule `COc1ccc(CCNC(=O)c2ccc3n2Cc2ccccc2N(C(=O)c2ccc(-c4ccccc4C)c(OC)c2)C3)cc1` [Example 47, 10-[(2-METHOXY-2′-METHYL-1,1′-BIPHENYL-4-YL)CARBONYL]-N-[2-(4-METHOXYPHENYL)ETHYL]-10,11-DIHYDRO-5H-PYRROLO[2,1-C][1,4]BENZODIAZEPINE-3-CARBOXAMIDE] registered a melting point of 193 to 195 °C. Moreover, at human FSH receptor, the IC50 was greater than 30 µM.
In turn, `COc1cc(C(=O)N2Cc3ccc(C(=O)NCCc4ccc(C)cc4)n3Cc3ccccc32)ccc1-c1ccccc1C` [Example 48] returned a melting point of 190 to 192 °C. Moreover, the IC50 on human FSH receptor was greater than 30 µM.
The matching figures for `COc1cc(C(=O)N2Cc3ccc(C(=O)NCCCCc4ccccc4)n3Cc3ccccc32)ccc1-c1ccccc1C` [Example 49, 10-[(2-METHOXY-2′-METHYL-1,1′-BIPHENYL-4-YL)CARBONYL]-N-(4-PHENYLBUTYL)-10,11-DIHYDRO-5H-PYRROLO[2,1-C][1,4]BENZODIAZEPINE-3-CARBOXAMIDE]: 154 to 159 °C and greater than 30 µM.
In turn, `COc1cc(C(=O)N2Cc3ccc(C(=O)NCC(c4ccccc4)c4ccccc4)n3Cc3ccccc32)ccc1-c1ccccc1C` [Example 50] gave a melting point of 129 to 132 °C. Also, the IC50 on human FSH receptor is greater than 30 µM.
The matching figures for `COc1ccc(CCNC(=O)c2ccc3n2Cc2ccccc2N(C(=O)c2ccc(-c4ccccc4C)c(OC)c2)C3)cc1OC` [Example 52, N-[2-(3,4-DIMETHOXYPHENYL)ETHYL]-10-[(2-METHOXY-2′-METHYL-1,1′-BIPHENYL-4-YL)CARBONYL]-10,11-DIHYDRO-5H-PYRROLO[2,1-C][1,4]BENZODIAZEPINE-3-CARBOXAMIDE]: 150 to 154 °C and greater than 30 µM.
As to `COc1cc(C(=O)N2Cc3ccc(C(=O)NCCc4ccc(Cl)cc4)n3Cc3ccccc32)ccc1-c1ccccc1C` [Example 53, N-[2-(4-CHLOROPHENYL)ETHYL]-10-[(2-METHOXY-2′-METHYL-1,1′-BIPHENYL-4-YL)CARBONYL]-10,11-DIHYDRO-5H-PYRROLO[2,1-C][1,4]BENZODIAZEPINE-3-CARBOXAMIDE], the melting point lay in the range of 195 to 196 °C. In addition, the IC50 on human FSH receptor is greater than 30 µM.
As to `COc1cc(C(=O)N2Cc3ccc(C(=O)NCCCc4ccccc4)n3Cc3ccccc32)ccc1-c1ccccc1C` [Example 54, 10-[(2-METHOXY-2′-METHYL-1,1′-BIPHENYL-4-YL)CARBONYL]-N-(3-PHENYLPROPYL)-10,11-DIHYDRO-5H-PYRROLO[2,1-C][1,4]BENZODIAZEPINE-3-CARBOXAMIDE], the melting point worked out at 191 °C. In addition, the inhibition at 30 µM at human FSH receptor is 46%.
In turn, `COc1cc(C(=O)N2Cc3ccc(C(=O)NCc4ccc(N(C)C)cc4)n3Cc3ccccc32)ccc1-c1ccccc1C` [Example 57, N-[4-(DIMETHYLAMINO)BENZYL]-10-[(2-METHOXY-2′-METHYL-1,1′-BIPHENYL-4-YL)CARBONYL]-10,11-DIHYDRO-5H-PYRROLO[2,1-C][1,4]BENZODIAZEPINE-3-CARBOXAMIDE] had a melting point of 148 to 150 °C. The IC50 at human FSH receptor was greater than 30 µM.
With `COc1cc(C(=O)N2Cc3ccc(C(=O)NC(C)c4ccccc4)n3Cc3ccccc32)ccc1-c1ccccc1C` (centres unmarked) [Example 58], the melting point is 211 °C. Moreover, the IC50 on human FSH receptor is greater than 30 µM.
As to `COc1cc(C(=O)N2Cc3ccc(C(=O)NCCC(c4ccccc4)c4ccccc4)n3Cc3ccccc32)ccc1-c1ccccc1C` [Example 59, N-(3,3-DIPHENYLPROPYL)-10-[(2-METHOXY-2′-METHYL-1,1′-BIPHENYL-4-YL)CARBONYL]-10,11-DIHYDRO-5H-PYRROLO[2,1-C][1,4]BENZODIAZEPINE-3-CARBOXAMIDE], the melting point was determined as 214 °C. Also, on human FSH receptor, the IC50 was greater than 30 µM.
On to `COc1cc(C(=O)N2Cc3ccc(C(=O)NCC(O)c4ccccc4)n3Cc3ccccc32)ccc1-c1ccccc1C` (centres unmarked) [Example 63], for which the melting point lay in the range of 214 to 215 °C. In addition, the IC50 on human FSH receptor is greater than 30 µM.
The matching figures for `COc1cc(C(=O)N2Cc3ccc(C(=O)NC4Cc5ccccc5C4)n3Cc3ccccc32)ccc1-c1ccccc1C` [Example 65, N-(2,3-DIHYDRO-1H-INDEN-2-YL)-10-[(2-METHOXY-2′-METHYL-1,1′-BIPHENYL-4-YL)CARBONYL]-10,11-DIHYDRO-5H-PYRROLO[2,1-C][1,4]BENZODIAZEPINE-3-CARBOXAMIDE]: 230 to 231 °C and greater than 30 µM.
In turn, `COc1ccccc1-c1ccc(C(=O)N2Cc3ccc(C(=O)NCCc4ccc(O)cc4)n3Cc3ccccc32)cc1C` [Example 66, N-[2-(4-HYDROXYPHENYL)ETHYL]-10-[(2′-METHOXY-2-METHYL-1,1′-BIPHENYL-4-YL)CARBONYL]-10,11-DIHYDRO-5H-PYRROLO[2,1-C][1,4]BENZODIAZEPINE-3-CARBOXAMIDE] had a melting point of 138 to 147 °C. The IC50 on human FSH receptor was greater than 30 µM.
